# Source: PubChem BioAssay AID212 (DTP/NCI, 2004)
# Where “and” joins values, the source holds several entries; their conditions need not be identical. Identical values can stand only once. Inconclusive results are not listed.
# Test system: BDF1 mice, colon carcinoma 38 sc, T/C %
# Assay: NCI In Vivo Anticancer Drug Screen. Data for tumor model Colon Carcinoma 38 (subcutaneous) in B6D2F1 (BDF1) mice
# Details: endpoint: median tumor weight (est.), higher = larger tumour
# Procedure, shortened: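 T/C readout: treated group (T) measurement over vehicle control group (C) measurement. Endpoint is survival or tumor size in mice bearing a transplanted tumor.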
# [1] = dose: 50.0 mg/kg/injection, schedule: Q07DX002 (ip), vehicle: Klucel (hydroxypropylcellulose) (HPC)
# [2] = dose: 100.0 mg/kg/injection, schedule: Q07DX002 (ip), vehicle: Klucel (hydroxypropylcellulose) (HPC)
# [3] = dose: 400.0 mg/kg/injection, schedule: Q07DX002 (ip), vehicle: Klucel (hydroxypropylcellulose) (HPC)
# [4] = dose: 12.5 mg/kg/injection, schedule: Q07DX002 (ip), vehicle: saline
# [5] = dose: 100.0 mg/kg/injection, schedule: Q07DX002 (ip), vehicle: saline
# [6] = dose: 12.5 mg/kg/injection, schedule: Q07DX002 (ip), vehicle: saline with Tween-80
# [7] = dose: 50.0 mg/kg/injection, schedule: Q07DX002 (ip), vehicle: saline with Tween-80
# [8] = dose: 100.0 mg/kg/injection, schedule: Q07DX002 (ip), vehicle: saline with Tween-80
# [9] = dose: 200.0 mg/kg/injection, schedule: Q07DX002 (ip), vehicle: Klucel (hydroxypropylcellulose) (HPC)
# [10] = dose: 25.0 mg/kg/injection, schedule: Q07DX002 (ip), vehicle: saline
smiles,measurement,setting,value
CC12C(=O)C=CCC1=CCC1C2CCC2(O)C(=O)OC3(C)C4CC5(C)C(COC16OC23C5C6=O)C(=O)O4 (stereo unspecified),T/C,[1],112 % of control
same,T/C,[2],86 % of control
same,T/C,[3],111 % of control
O=C1C=CC(n2cc(F)c(=O)[nH]c2=O)O1 (stereo unspecified),T/C,[4],113 % of control
same,T/C,[5],54 % of control
same,T/C,"dose: 200.0 mg/kg/injection, schedule: Q07DX002 (ip), vehicle: saline",116 % of control
CC1(O)CC23CC(O)C4(O)C(CC(O)C4(C)C)C(C)(O)C2CCC1C3O (stereo unspecified),T/C,"dose: 0.25 mg/kg/injection, schedule: Q07DX002 (ip), vehicle: Klucel (hydroxypropylcellulose) (HPC)",102 % of control
same,T/C,"dose: 0.5 mg/kg/injection, schedule: Q07DX002 (ip), vehicle: Klucel (hydroxypropylcellulose) (HPC)",53 % of control
Nc1nc2c(C(=O)N3CCCC3)nnn2c2ccccc12,T/C,[6],98 % of control
same,T/C,"dose: 25.0 mg/kg/injection, schedule: Q07DX002 (ip), vehicle: saline with Tween-80",105 % of control
same,T/C,[7],100 % of control
same,T/C,[8],116 % of control
CC1CCC(n2cnc3c(Cl)ncnc32)O1 (stereo unspecified),T/C,"dose: 12.5 mg/kg/injection, schedule: Q07DX002 (ip), vehicle: Klucel (hydroxypropylcellulose) (HPC)",76 % of control
same,T/C,[1],78 % of control and 100 % of control
same,T/C,"dose: 62.0 mg/kg/injection, schedule: Q07DX002 (ip), vehicle: Klucel (hydroxypropylcellulose) (HPC)",87 % of control
same,T/C,[2],86 % of control and 95 % of control
same,T/C,"dose: 125.0 mg/kg/injection, schedule: Q07DX002 (ip), vehicle: Klucel (hydroxypropylcellulose) (HPC)",115 % of control
same,T/C,[9],109 % of control and 95 % of control
same,T/C,"dose: 250.0 mg/kg/injection, schedule: Q07DX002 (ip), vehicle: Klucel (hydroxypropylcellulose) (HPC)",56 % of control
COc1ccc(/C=C/C(=O)c2cc(C(=O)O)c(OC)cc2OC)cc1OC,T/C,[4],94 % of control and 103 % of control
same,T/C,[10],88 % of control and 94 % of control
same,T/C,"dose: 50.0 mg/kg/injection, schedule: Q07DX002 (ip), vehicle: saline",114 % of control and 124 % of control
same,T/C,[5],88 % of control and 96 % of control
same,T/C,"dose: 400.0 mg/kg/injection, schedule: Q07DX002 (ip), vehicle: saline",93 % of control and 103 % of control
CN(C1=NS(=O)(=O)N=C(N(C)c2ccccc2)O1)c1ccccc1,T/C,"dose: 12.5 mg/kg/injection, schedule: Q07DX003 (ip), vehicle: Klucel (hydroxypropylcellulose) (HPC)",103 % of control
same,T/C,"dose: 25.0 mg/kg/injection, schedule: Q07DX003 (ip), vehicle: Klucel (hydroxypropylcellulose) (HPC)",68 % of control
same,T/C,[2],119 % of control
same,T/C,"dose: 100.0 mg/kg/injection, schedule: Q07DX003 (ip), vehicle: Klucel (hydroxypropylcellulose) (HPC)",101 % of control
same,T/C,[9],110 % of control
same,T/C,"dose: 200.0 mg/kg/injection, schedule: Q07DX003 (ip), vehicle: Klucel (hydroxypropylcellulose) (HPC)",113 % of control
same,T/C,[3],162 % of control
same,T/C,"dose: 400.0 mg/kg/injection, schedule: Q07DX003 (ip), vehicle: Klucel (hydroxypropylcellulose) (HPC)",113 % of control
same,T/C,"dose: 800.0 mg/kg/injection, schedule: Q07DX002 (ip), vehicle: Klucel (hydroxypropylcellulose) (HPC)",104 % of control
same,T/C,"dose: 1600.0 mg/kg/injection, schedule: Q07DX002 (ip), vehicle: Klucel (hydroxypropylcellulose) (HPC)",159 % of control
CC(C)=CCNc1ncnc2c1ncn2C1OC(CO)C(O)C1O (stereo unspecified),T/C,[6],61 % of control
same,T/C,[4],102 % of control
same,T/C,[10],89 % of control
same,T/C,[7],96 % of control
same,T/C,[8],44 % of control
same,T/C,[5],97 % of control
same,T/C,"dose: 200.0 mg/kg/injection, schedule: Q07DX002 (ip), vehicle: saline with Tween-80",75 % of control
